From patent publication US9296720B2, “Carboxamide-substituted heteroaryl-pyrazoles and the use thereof” (AiCuris GmbH & Co. KG, priority 2011, dated 2016) come the findings set out here.

The structures appear in SMILES notation. Bounds are passed on as bounds.

What all share (format): cell-based
Test [1] concerns HIV-1NL4-3 Wild Type. Put plainly: Luminescence reduction assay, MT4 cells infected with HIV-1NL4-3 luciferase reporter virus, wild type. The settings on record: Human immunodeficiency virus 1, MT4, MT4 cells, 2% FCS. From the text:
(§1) For this assay, HIV-1NL4-3 reporter viruses are used, which carry the luciferase164 gene (lu164) instead of the nef gene. The viruses are generated by transfection of 293T cells with the corresponding proviral pNL4-3 plasmid (Lipofectamine Reagent, Invitrogen, Karlsruhe, Germany). Starting from the proviral plasmid-DNA, viruses with defined resistance mutations in the reverse transcriptase gene are produced with the “QuikChange II XL Site-Directed Mutagenesis Kit” (Stratagene, Cedar Creek, Tex., USA). Among other things, the following mutations are generated: A98G, A98G-K103N-V108I, A98S, F227C, F227L, G190A, G190S, K101E, K101Q-K103N, K103N, K103N-F227L, K103N-G190A, K103N-G190S, K103N-M230L, K103N-N348I, K103N-P225H, K103N-V108I, K103N-V108I-P225H, K103N-V179F-Y181C, K103N-Y181C, K103N-Y181C-G190A, L100I, L100I-K103N, L100I-K103N-V179I-Y181C, L100I-K103N-Y181C, L234I, N348I, P225H, P236L, V106A, V106A-E138K, V106A-F227C, V106A-F227L, V106I, V106I-Y188L, V106M, V108I, V179F-Y181C, V179I, V179I-Y181C, Y181C, Y181C-G190A, Y181C-M230L, Y181I, Y188L. MT4 cells infected with these reporter viruses (NIH AIDS Research and Reference Reagent Program) secrete luciferase into the medium, which makes possible the luminometric quantification of the virus replication.
(§2) For the batch of a 96-well MTP, 3 million MT4 cells are pelletized, suspended in 1 ml of RPMI 1640 medium without phenol red (Invitrogen, Karlsruhe, Germany)/10% FCS/2 mmol of L-glutamine/1% Pen/Strep (Invitrogen, Karlsruhe, Germany), and incubated together with a suitable amount of the corresponding HIV-1NL4-3 reporter virus for 2 hours at 37° C. (pellet infection). Non-adsorbed viruses are then washed out with PBS, the infected cells are pelletized again, and suspended in 8 ml of RPM 11640 medium without phenol red/2% or 10% FCS/2 mmol of L-glutamine/1% Pen/Strep. Therefrom, 80 μl per well is pipetted into a white 96-well MTP in 20 μl of test substance in a suitable dilution. In order to avoid boundary effects, the edge wells of the MTP are not used for substance dilutions. The second vertical row of the MTP contains only infected cells (virus control), and the eleventh vertical row contains only non-infected cells (cell control) in each case in RPMI 1640 medium without phenol red/2% or 10% FCS/2 mmol of L-glutamine/1% Pen/Strep. The other wells of the MTP contain the compounds according to the invention in different concentrations starting from the third vertical row, from which dilution of the test substances is carried out 3^7 times in three steps up to the tenth vertical row. The test substances are dissolved in DMSO, whereby the DMSO final concentration in the test batch is ultimately 1%. The test batches are incubated for 5 days at 37° C./5% CO2, and are luminometrically evaluated after the addition of 15 μl of Lu164-buffer (65 mmol of NaCl, 300 mmol of MES, pH 5.8, 5 mmol of glutathione and 1:200 coelenterazine (5 mg/ml in 30 μM of glutathione/DMSO) (P.J.K. GmbH, Kleinblittersdorf, Germany)). In the virus control, the resulting values are in the range of 1 million RLUs (relative light units), and in the cell control, the resulting values are 300 to 400 RLUs. The EC50 values of the test substances are determined as the concentration of the treated infected cells, in which the virus replication measured in RLUs is 50% of the untreated infected cells.

The subject of test [2] is HIV-1NL4-3 K103N-Y181C. Put plainly: Luminescence reduction assay, MT4 cells infected with HIV-1NL4-3 luciferase reporter virus, RT mutant K103N-Y181C. The settings on record: Human immunodeficiency virus 1, MT4, read-out: EC50 (μM) MT4 Cells HIV-1NL4-3 K103N-Y181C 2% FCS, MT4 cells, HIV-1NL4-3 K103N-Y181C, 2% FCS.
Description: as §1, §2

The subject of test [3] is HIV-1LAI Wild Type. Put plainly: AlamarBlue viability assay, HIV-1LAI-infected MT4 cells. The settings on record: Human immunodeficiency virus 1, MT4, MT4 cells, 10% FCS. As to the method:
For the batch of a 96-well MTP, 3 million PBLs are pelletized, suspended in 1 ml of RPMI 1640 medium/10% FCS/2 mmol of L-glutamine/1% Pen/Strep, and incubated together with a suitable amount of HIV-1LA1 (NIH AIDS Research & Reference Reagent Program, Germantown, USA) for 2 hours at 37° C. (pellet infection). Non-adsorbed viruses are then washed out with PBS, the infected cells are pelletized again, and suspended in 18 ml of RPMI 1640 medium/10% FCS/2 mmol of L-glutamine/1% Pen/Strep/interleukin-2 (40 U/ml). Therefrom, 180 μl per well is pipetted into a white 96-well MTP in 20 μl of test substance in a suitable dilution. As an alternative, after preparation of the substance dilutions, the HIV is added by pipetting in the MTP together with the cells and is no longer washed out (supernatant infection). In order to avoid boundary effects, the edge wells of the MTP are not used for substance dilutions. The second vertical row of the MTP contains only infected cells (virus control), and the eleventh vertical row contains only non-infected cells (cell control) in each case in RPMI 1640 medium/10% FCS/2 mmol of L-glutamine/1% Pen/Strep/interleukin-2 (40 U/ml). The other wells of the MTP contain the compounds according to the invention in different concentrations starting from the third vertical row, from which dilution of the test substances is carried out 3^7 times in three steps up to the tenth vertical row. The test substances are dissolved in DMSO, whereby the DMSO final concentration in the test batch is ultimately 1%. The test batches are incubated at 37° C./5% CO2. After 5 and 7 days, in each case 50 μl of cell-free supernatant is drawn off from each well in order to determine the amount of p24 contained by means of p24 ELISA (HIV-1 p24^CA Antigen Capture Assay Kit, NCI-Frederick Cancer Research and Development Center, Frederick, USA). From the resulting values of the photometric analysis (450/620 nm), the EC50 values of the test substances are determined as the concentration of the treated infected cells, in which the amount of p24 is 50% of the untreated infected cells.
As an alternative, MT4 cells are used for testing test substances instead of PBLs. HIV-1LA1-infected MT4 cells (MOI 0.01, supernatant infection) are incubated according to the above-described pattern in RPMI 1640 medium with 2% or 10% FCS/2 mmol of L-glutamine/1% Pen/Strep in the presence of test substances for 5 days at 37° C./5% CO2 (20 μl of substance dilution and 80 μl of cells/virus per well). Then, 10 μl of AlamarBlue (Invitrogen, Karlsruhe, Germany) is added to each well, and MTPs are incubated for 3 hours at 37° C., before the fluorimetric analysis is done (544/590 nm). The resulting values are approximately 30,000 in the case of untreated, non-infected cells, and approximately 6,000 in the case of untreated infected cells. In the low concentration range, the EC50 values of the test substances are determined as the concentration of the treated infected cells, in which the fluorescence is 50% of the untreated non-infected cells (in each case relative to the values of the untreated infected cells). In addition, in the high concentration range, the CC50 values of the test substances are determined as the concentration of the treated infected cells, in which the fluorescence is 50% of the untreated, non-infected cells (in each case relative to the values of the untreated infected cells).

As for `O=C1CN(C(=O)c2cc(-c3cc(F)cc(Cl)c3)n(-c3ccnc(Cl)c3)n2)CCN1` [Example 15, 4-{[5-(3-Chloro-5-fluorophenyl)-1-(2-chloropyridin-4-yl)-1H-pyrazol-3-yl]carbonyl}piperazin-2-one], the results for the EC50 in test [1], in test [2] and in test [3] were 0.018 µM, 0.452 µM and 0.151 µM, respectively.

For the compound `O=C1CN(C(=O)c2cc(-c3cc(F)cc(Cl)c3)n(-c3ccnc(C(F)(F)F)c3)n2)CN1` [Example 16, 1-({5-(3-Chloro-5-fluorophenyl)-1-[2-(trifluoromethyl)pyridin-4-yl]-1H-pyrazol-3-yl}carbonyl)imidazolidin-4-one], the figures for the EC50 in test [1], in test [2] and in test [3] were 0.055 µM, 0.339 µM and 0.49 µM, respectively.

As for `O=C1CN(C(=O)c2cc(-c3cc(F)cc(Cl)c3)n(-c3ccnc(C(F)(F)F)c3)n2)CCN1` [Example 17], the concentration for a half-maximal effect (EC50) in test [1] is 0.248 µM; in test [2], greater than 3.3 µM; in test [3] it was 3.67 µM.

For the compound `O=C(c1cc(-c2cc(F)cc(Cl)c2)n(-c2ccnc(C(F)(F)F)c2)n1)N1CCSC1` [Example 18], the EC50 in test [1] was 0.284 µM; in test [2], greater than 3.3 µM; in test [3], greater than 3.3 µM.

In the case of `O=C(c1cc(-c2cc(F)cc(Cl)c2)n(-c2ccnc(C(F)(F)F)c2)n1)N1CC[S+]([O-])C1` (stereo not drawn) [Example 19, {5-(3-Chloro-5-fluorophenyl)-1-[2-(trifluoromethyl)pyridin-4-yl]-1H-pyrazol-3-yl}(1-oxido-1,3-thiazolidin-3-yl)methanone], the results for the EC50 in test [1], in test [2] and in test [3] were 0.152 µM, greater than 3.3 µM and 2.5 µM, respectively.

Regarding `O=C(c1cc(-c2cc(F)cc(Cl)c2)n(-c2ccnc(C(F)(F)F)c2)n1)N1CCS(=O)(=O)C1` [Example 20, {5-(3-Chloro-5-fluorophenyl)-1-[2-(trifluoromethyl)pyridin-4-yl]-1H-pyrazol-3-yl}(1,1-dioxido-1,3-thiazolidin-3-yl)methanone], the EC50 in test [1] is 0.162 µM; in test [2], 1.39 µM; in test [3] it was 1.46 µM.

As for `Cc1cc(-n2nc(C(=O)N3CNC(=O)C3)cc2-c2cc(F)cc(Cl)c2)ccn1` [Example 21, 1-{[5-(3-Chloro-5-fluorophenyl)-1-(2-methylpyridin-4-yl)-1H-pyrazol-3-yl]carbonyl}imidazolidin-4-one], the EC50 in test [1] came to 0.092 µM; in test [2], 0.436 µM; in test [3], 0.397 µM.

Consider `Cc1cc(-n2nc(C(=O)N3CCNC(=O)C3)cc2-c2cc(F)cc(Cl)c2)ccn1` [Example 22, 4-{[5-(3-Chloro-5-fluorophenyl)-1-(2-methylpyridin-4-yl)-1H-pyrazol-3-yl]carbonyl}piperazin-2-one], for which the EC50 in test [1] is 0.375 µM; in test [2], greater than 3.3 µM; in test [3], 3.18 µM.

Turning to `Cc1cc(-n2nc(C(=O)N3CCSC3)cc2-c2cc(F)cc(Cl)c2)ccn1` [Example 23, [5-(3-Chloro-5-fluorophenyl)-1-(2-methylpyridin-4-yl)-1H-pyrazol-3-yl](1,3-thiazolidin-3-yl)methanone], the figures for the EC50 in test [1], in test [2] and in test [3] were 0.439 µM, greater than 3.3 µM and greater than 3.3 µM, respectively.

On to `Cc1cc(-n2nc(C(=O)N3CC[S+]([O-])C3)cc2-c2cc(F)cc(Cl)c2)ccn1` (stereo not drawn) [Example 24, [5-(3-Chloro-5-fluorophenyl)-1-(2-methylpyridin-4-yl)-1H-pyrazol-3-yl](1-oxido-1,3-thiazolidin-3-yl)methanone], for which the EC50 in test [1] was 0.066 µM; in test [2], greater than 3.3 µM; in test [3], 0.668 µM.

Take `COc1cc(-n2nc(C(=O)N3CNC(=O)C3)cc2-c2cc(F)cc(Cl)c2)ccn1` [Example 25, 1-{[5-(3-Chloro-5-fluorophenyl)-1-(2-methoxypyridin-4-yl)-1H-pyrazol-3-yl]carbonyl}imidazolidin-4-one]: the figures for the EC50 in test [1], in test [2] and in test [3] were 0.004 µM, 0.04 µM and 0.011 µM, respectively.

As for `O=C1CN(C(=O)c2cc(-c3cc(Br)cc(OC(F)(F)F)c3)n(-c3ccccn3)n2)CN1` [Example 26, 1-({5-[3-Bromo-5-(trifluoromethoxy)phenyl]-1-(pyridin-2-yl)-1H-pyrazol-3-yl}carbonyl)imidazolidin-4-one], the EC50 in test [1] is 0.12 µM; in test [2], 0.071 µM; in test [3], greater than 3.3 µM.

Consider `O=C1CN(C(=O)c2cc(-c3cc(Br)cc(OC(F)(F)F)c3)n(-c3cccc(Cl)n3)n2)CN1` [Example 27, 1-({5-[3-Bromo-5-(trifluoromethoxy)phenyl]-(6-chloropyridin-2-yl)-1H-pyrazol-3-yl}carbonyl)imidazolidin-4-one], for which the EC50 in test [1] is 0.098 µM; in test [2], 0.114 µM; in test [3], greater than 3.3 µM.
